Experimental data: patent US4889857A, “Quinolonecarboxylic acid compounds and pharmaceutical use thereof” (Yoshitomi Pharmaceutical Industries, Ltd., priority 1987, dated 1989)
In brackets after ≈: the same amount, converted by molar mass. Where two headings read alike, the source gives them in different places.

Experiments:
[1] = test system: Streptococcus pyogenes S-8; test: Antibacterial activity in vitro (MIC); assay type: cell-based
[2] = test system: Flavobacterium meningosepticum IFO 12535; test: Antibacterial activity in vitro (MIC); assay type: cell-based; conditions: Elizabethkingia meningoseptica, IFO12535; inoculum 10^6 cells/ml
Acute toxicity = conditions: mouse, in vivo
Experimental: The compound A was intraveneously (iv) or orally (po) administered to a group of male mice once. After 10 days, the LD50 values were determined by the Litchfield-Wilcoxon method.

S. aureus 109(MRSA) = test: MIC of the infecting organism (Experiment 2); assay type: cell-based; conditions: Staphylococcus aureus, Table 2
Experimental: (§1) Experimental infection was caused by inoculating male mice intraperitoneally with each organism. Each of the test compounds was administered orally to the mice, one hour after the inoculation. […] The Minimum inhibitory concentrations (MIC) were also measured.

S. pyogenes C-203 = test: MIC of the infecting organism (Experiment 2); assay type: cell-based; conditions: Streptococcus pyogenes, C203; Table 2
Experimental: as §1

S. pneumoniae Type III = test: MIC of the infecting organism (Experiment 2); assay type: cell-based; conditions: Streptococcus pneumoniae; Table 2
Experimental: as §1

E. coli KC-14 [3] = test: Protective effect against experimental infection in mice; assay type: in vivo; conditions: oral, 1 h after i.p. inoculation of 5.75 × 10^4 cells/mouse [488 LD50] with mucin; survival day 7; 95% confidence limit
Experimental: (§2) Experimental infection was caused by inoculating male mice intraperitoneally with each organism. Each of the test compounds was administered orally to the mice, one hour after the inoculation. The therapeutic effect of each compounds was judged by using a 50% effective dose (ED50) from the survival rate on day 7 after injection by the Probit method as described in Proc. Soc. Exp. Biol. Med., Vol. 57, p.261-264, 1944. The Minimum inhibitory concentrations (MIC) were also measured.
(The overnight cultures of test organisms with an asterisk (*) were
diluted with 50% mucin and 0.5 ml of each was injected intraperitoneally
into mice. A double asterisk (**) means a 95% confidence limit. MRSA mean
methycillinresistant Staphylococcus aureus.)

[4] = test system: Micrococcus luteus IFO 12708; test: microbe, parasite or virus in culture; conditions: IFO12708
Pseudomonas cepacia 739 = test: Antibacterial activity in vitro (MIC); assay type: cell-based; conditions: Burkholderia cepacia, inoculum 10^6 cells/ml
[5] = test system: Enterobacter cloacae IFO 12937; test: Antibacterial activity in vitro (MIC); assay type: cell-based
[6] = test system: Enterococcus faecalis LS-101; test: Antibacterial activity in vitro (MIC); assay type: cell-based
[7] = test system: Staphylococcus aureus 308A-1; test: Antibacterial activity in vitro (MIC); assay type: cell-based
[8] = test system: Staphylococcus aureus FDA 209P*; test: Antibacterial activity in vitro (MIC), horse blood medium; assay type: cell-based; conditions: FDA209P
Experimental: The antibacterial activities in vitro (minimum inhibitory concentration, MIC, μg/ml) of the test compounds were measured according to the standard method of the Japanese Chemotherapy Society (Chemotherapy, Vol. 23, p.1126, 1974).
(Inoculum size: 10^6 cells/ml, Organisms with asterisk (*) were
cultivated in a 10% horse bloodadded medium.)

[9] = test system: Streptocccus pneumoniae Type 1; test: Antibacterial activity in vitro (MIC); assay type: cell-based
S. aureus Smith = test: MIC of the infecting organism (Experiment 2); assay type: cell-based; conditions: Staphylococcus aureus; Table 2; read-out: MIC
Experimental: as §2

E. coli KC-14 [10] = test: MIC of the infecting organism (Experiment 2); assay type: cell-based; conditions: Escherichia coli, KC14
Experimental: as §2

[11] = test system: Aerobacter aerogenes IFO 12979; test: Antibacterial activity in vitro (MIC); assay type: cell-based; conditions: Klebsiella aerogenes, IFO12979
[12] = test system: Aerococcus viridans IFO 12219; test: microbe, parasite or virus in culture; conditions: IFO12219
[13] = inoculum 10^6 cells/ml, 10% horse blood-added medium, read-out: MIC

| SMILES | MIC [2] [µg/mL] | MIC (S. aureus 109(MRSA)) [µg/mL] | MIC (S. pyogenes C-203) [µg/mL] | MIC (S. pneumoniae Type III) [µg/mL] | ED50 (E. coli KC-14 [3]) | MIC [4] [µg/mL] | MIC (Pseudomonas cepacia 739) [µg/mL] | MIC (S. aureus Smith) [µg/mL] | MIC [12] [µg/mL] | other results |
| --- | --- | --- | --- | --- | --- | --- | --- | --- | --- | --- |
| CNCC1CN(c2c(F)cc3c(=O)c(C(=O)O)cn(C4CC4)c3c2F)CCO1 (stereo not drawn) [Compound A, 1-cyclopropyl-6,8-difluoro-1,4,-dihydro-7-[2-(methylaminomethyl)morpholino]-4-oxoquinoline-3-carboxylic acid] | 1.56 (≈ 3.97 µM) | 0.2 | 0.05 | 0.05 | 0.028(0.019-0.042) mg/mouse | 0.39 (≈ 0.991 µM) | 1.56 (≈ 3.97 µM) | 0.012 | 0.1 (≈ 0.254 µM) | MIC ([1]; S8): 0.1 µg/mL (≈ 0.254 µM); LD50 at 240 h (Acute toxicity; iv): 210 mg/kg; LD50 at 240 h (Acute toxicity; po): > 3000 mg/kg; MIC ([5]; IFO12937): 0.78 µg/mL (≈ 1.98 µM); MIC ([6]; LS101): 0.1 µg/mL (≈ 0.254 µM); MIC ([7]; 308A1): 0.05 µg/mL (≈ 0.127 µM); MIC [8]: 0.025 µg/mL (≈ 0.0636 µM); MIC [9]: 0.05 µg/mL (≈ 0.127 µM); MIC (E. coli KC-14 [10]; Table 2, read-out: MIC): 0.05 µg/mL; MIC [11]: 0.2 µg/mL (≈ 0.508 µM) |
| CC1COc2c(N3CCN(C)CC3)c(F)cc3c(=O)c(C(=O)O)cn1c23 (stereo not drawn) [OFLX, 9-fluoro-3-methyl-10-(4-methyl-1-piperazinyl)-7-oxo-2,3-dihydro-7H-pyrido[1,2,3-de][1,4]-benzoxazine-6-carboxylic acid] | 0.78 (≈ 2.16 µM) | 0.78 | 0.78 | 1.56 | 0.018(0.013-0.026) mg/mouse | 3.13 (≈ 8.66 µM) | 0.78 (≈ 2.16 µM) | 0.2 | 3.13 (≈ 8.66 µM) | MIC ([1]; S8, inoculum 10^6 cells/ml, 10% horse blood-added medium, read-out: MIC): 0.78 µg/mL (≈ 2.16 µM); MIC ([5]; IFO12937, inoculum 10^6 cells/ml, read-out: MIC): 0.39 µg/mL (≈ 1.08 µM); MIC ([6]; LS101, inoculum 10^6 cells/ml, 10% horse blood-added medium, read-out: MIC): 0.78 µg/mL (≈ 2.16 µM); MIC ([7]; 308A1, inoculum 10^6 cells/ml, read-out: MIC): 0.39 µg/mL (≈ 1.08 µM); MIC [8, 13]: 0.2 µg/mL (≈ 0.553 µM); MIC [9, 13]: 0.78 µg/mL (≈ 2.16 µM); MIC (E. coli KC-14 [10]): 0.025 µg/mL; MIC ([11]; inoculum 10^6 cells/ml, read-out: MIC): 1.56 µg/mL (≈ 4.32 µM) |
